From PubChem BioAssay AID2060327 (Molecular Pharmacology Branch, DTP, NCI, 2025)

Tested on: PC-3 multi-cell spheroids, viability
Test: Anticancer human tumor PC-3 cell line growth inhibition [IpAb];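 note: spheroids exposed to compounds for 7 days before readout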;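 for viability, T/C: 100% = DMSO vehicle control wells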
Conditions: for IC50: curve of first compound; for viability, T/C: stronger effect = lower value
From the text: Combinatorial screen of targeted agents with ipatasertib and abemaciclib in multi-cell type tumor spheroids
A high-throughput screen of multi-cell type tumor spheroids was designed to identify active combinations of targeted small molecules and ipatasertib or abemaciclib. Complex spheroids include a stromal component modeled by human endothelial cells (HUVEC) and fibroblasts modeled by human mesenchymal stem cells (MSCs). The concentration ranges selected for each drug and investigational agent were based upon clinically achievable concentrations if the clinical Cmax of the agent was known.
Compounds. The drugs and investigational agents: ipatasertib (NSC767898), abemaciclib(NSC768073), selumetinib (NSC741078), trametinib (758246), adavosertib (NSC754352), everolimus (NSC733504), sapanisertib (NSC764658), vemurafenib (NSC761431), venetoclax (NSC766270), copanlisib (NSC809693), apelisib (NSC765974), palbociblib (NSC758247), vemurafenib (NSC761431), dabrafenib (NSC764134), ravoxertinib (NSC781343), BMS-387032 (NSC767048), sotorasib (NSC818433), talazoparib (NSC767125) and afursertib (NSC778305), were obtained from the National Cancer Institute (NCI) Developmental Therapeutics Program Chemical Repository. The FDA-approved anticancer drug set is available from the NCI Developmental Therapeutics Program. […] The stock solutions were prepared in dimethyl sulfoxide (DMSO, Sigma-Aldrich, St. Louis, MO, cat. D2650) at 800-fold the tested concentration and stored at -70 degrees C prior to their use. All drugs and investigational agents were tested over a range starting from a high concentration at or near the clinical Cmax and decreasing in half-log increments. If the clinical Cmax for an agent had not been determined, the highest concentration tested was 10 microM.
NCI60 Cell Culture. NCI60 cell lines were obtained from the NCI Developmental Therapeutics Program Tumor Repository. For each lot of cells, the Repository performed Applied Biosystems AmpFLSTR Identifiler testing with PCR amplification to confirm consistency with the published Identifier STR profile for each cell line. Cells were kept in continuous culture for no more than 20 passages. The optimal seeding densities for each of the cell lines at each time point assessed were determined prior to performing the concentration response studies. Briefly, the NCI60 human tumor lines were grown as monolayers in RPMI 1640 medium supplemented with 10% FBS and 2 mmol/L L-glutamine.
An additional 9 lines were from the NCI60 cell line panel including MDA-MB-231 breast carcinoma, MDA-MB-468 breast carcinoma, MCF7 breast carcinoma, Hs578T breast carcinoma, MALME-3M melanoma, SK-MEL-2 melanoma, SK-OV-3 ovarian carcinoma, DU-145 prostate carcinoma, PC-3 prostate carcinoma, all cell lines along with major genetic alterations are listed on Table 2. Pooled donor human umbilical vein endothelial cells (HUVEC, Lonza, cat. CC-2519) and human mesenchymal stem cells (hMSC, Lonza, cat. PT-2501) were purchased from Lonza (Walkersville, MD).
PDMR cell lines were grown in complete medium (DC medium): Dulbecco's modified Eagle's medium (DMEM)/F12 supplemented with 5% fetal bovine serum (FBS), 2 mM L-glutamine, 100 U/mL penicillin and 100 µg/ml streptomycin, 0.4 µg/ml hydrocortisone, 10 ng/ml epidermal growth factor (EGF) recombinant human protein, 24 µg/mL adenine, and 0.1 mg/mL primocin. During culture from frozen stock vials, PDMR cells were cultured in the same medium containing 10 µM Y-27632 (see Table 3). The PDCs were cultured in complete DMEM/F12 media without 10 microM Y-27632 dihydrochloride for at least two passages prior to the screen. The pooled donor HUVEC and hMSC were cultured in endothelial cell growth medium 2 (PromoCell, Heidelberg, Germany, cat. C-22011) and mesenchymal stem cell growth medium 2 (PromoCell, cat. C-28009), respectively. For all experiments, HUVEC and hMSC were used at passages </=5.
[…]

[1] = second compound 0.1 µM, first compound 0.0316 µM
[2] = second compound 0.1 µM, first compound 0.1 µM
[3] = second compound 0.1 µM, first compound 0.316 µM
[4] = second compound 0.1 µM, first compound 1 µM
[5] = second compound 0.1 µM, first compound 3.16 µM
[6] = second compound 0.1 µM, first compound 10 µM
[7] = second compound 0.316 µM, first compound 0.0316 µM
[8] = second compound 0.316 µM, first compound 0.1 µM
[9] = second compound 0.316 µM, first compound 0.316 µM
[10] = second compound 0.316 µM, first compound 1 µM
[11] = second compound 0.316 µM, first compound 3.16 µM
[12] = second compound 0.316 µM, first compound 10 µM
[13] = second compound 1 µM, first compound 0.0316 µM
[14] = second compound 1 µM, first compound 0.1 µM
[15] = second compound 1 µM, first compound 0.316 µM
[16] = second compound 1 µM, first compound 1 µM
[17] = second compound 1 µM, first compound 3.16 µM
[18] = second compound 1 µM, first compound 10 µM
[19] = second compound 3.16 µM, first compound 0.0316 µM
[20] = second compound 3.16 µM, first compound 0.1 µM
[21] = second compound 3.16 µM, first compound 0.316 µM
[22] = second compound 3.16 µM, first compound 1 µM
[23] = second compound 3.16 µM, first compound 3.16 µM
[24] = second compound 3.16 µM, first compound 10 µM
[25] = second compound 10 µM, first compound 0.0316 µM
[26] = second compound 10 µM, first compound 0.1 µM
[27] = second compound 10 µM, first compound 0.316 µM
[28] = second compound 10 µM, first compound 1 µM
[29] = second compound 10 µM, first compound 3.16 µM
[30] = second compound 10 µM, first compound 10 µM

SMILES | IC50 (second compound 0.1 µM) [nM] | IC50 (second compound 0.316 µM) [nM] | IC50 (second compound 1 µM) [nM] | IC50 (second compound 3.16 µM) [nM] | IC50 (second compound 10 µM) [nM] | viability, T/C [1] [%] | viability, T/C [2] [%] | viability, T/C [3] [%] | viability, T/C [4] [%] | viability, T/C [5] [%] | viability, T/C [6] [%] | viability, T/C [7] [%] | viability, T/C [8] [%] | viability, T/C [9] [%] | viability, T/C [13] [%] | viability, T/C [14] [%] | viability, T/C [19] [%] | viability, T/C [20] [%] | viability, T/C [25] [%] | viability, T/C [26] [%] | further results
C=CCn1c(=O)c2cnc(Nc3ccc(N4CCN(C)CC4)cc3)nc2n1-c1cccc(C(C)(C)O)n1 + CC(C)NCC(C(=O)N1CCN(c2ncnc3c2C(C)CC3O)CC1)c1ccc(Cl)cc1 | 114 | < 31.6 | < 31.6 | < 31.6 | < 31.6 | 73.4 | 48.6 | 42.4 | 20.5 | 19.6 | 21.1 | 41.3 | 31.3 | 15.4 | 20.4 | 16.2 | 14.3 | 11 | 13.1 | 11.7 | viability, T/C [10]: 14.1%; viability, T/C [11]: 13.8%; viability, T/C [12]: 17.2%; viability, T/C [15]: 10.6%; viability, T/C [16]: 9.67%; viability, T/C [17]: 9.62%; viability, T/C [18]: 11.5%; viability, T/C [21]: 8.81%; viability, T/C [22]: 7.7%; viability, T/C [23]: 8.01%; viability, T/C [24]: 7.89%; viability, T/C [27]: 8.4%; viability, T/C [28]: 6.86%; viability, T/C [29]: 7.49%; viability, T/C [30]: 7.22%
CC(C)n1nc(-c2ccc3oc(N)nc3c2)c2c(N)ncnc21 + CC(C)NCC(C(=O)N1CCN(c2ncnc3c2C(C)CC3O)CC1)c1ccc(Cl)cc1 | 1.3 | < 0.316 | < 0.316 | < 0.316 | < 0.316 | 10.4 | 10 | – | – | – | – | 7.3 | 6.67 | – | 5.46 | 4.64 | 3.69 | 4.13 | 2.74 | 2.74 | viability, T/C (second compound 0.1 µM, first compound 0.000316 µM): 63%; viability, T/C (second compound 0.1 µM, first compound 0.001 µM): 52.6%; viability, T/C (second compound 0.1 µM, first compound 0.00316 µM): 38.1%; viability, T/C (second compound 0.1 µM, first compound 0.01 µM): 20.2%; viability, T/C (second compound 0.316 µM, first compound 0.000316 µM): 37.3%; viability, T/C (second compound 0.316 µM, first compound 0.001 µM): 32.8%; viability, T/C (second compound 0.316 µM, first compound 0.00316 µM): 18.4%; viability, T/C (second compound 0.316 µM, first compound 0.01 µM): 11.8%; viability, T/C (second compound 1 µM, first compound 0.000316 µM): 20%; viability, T/C (second compound 1 µM, first compound 0.001 µM): 14.8%; viability, T/C (second compound 1 µM, first compound 0.00316 µM): 9.96%; viability, T/C (second compound 1 µM, first compound 0.01 µM): 7.81%; viability, T/C (second compound 3.16 µM, first compound 0.000316 µM): 12%; viability, T/C (second compound 3.16 µM, first compound 0.001 µM): 10.3%; viability, T/C (second compound 3.16 µM, first compound 0.00316 µM): 8.27%; viability, T/C (second compound 3.16 µM, first compound 0.01 µM): 5.41%; viability, T/C (second compound 10 µM, first compound 0.000316 µM): 12%; viability, T/C (second compound 10 µM, first compound 0.001 µM): 10.2%; viability, T/C (second compound 10 µM, first compound 0.00316 µM): 7.33%; viability, T/C (second compound 10 µM, first compound 0.01 µM): 3.83%
CC1(C)CCC(CN2CCN(c3ccc(C(=O)NS(=O)(=O)c4ccc(NCC5CCOCC5)c([N+](=O)[O-])c4)c(Oc4cnc5[nH]ccc5c4)c3)CC2)=C(c2ccc(Cl)cc2)C1 + CC(C)NCC(C(=O)N1CCN(c2ncnc3c2C(C)CC3O)CC1)c1ccc(Cl)cc1 | 4270 | < 31.6 | < 31.6 | < 31.6 | < 31.6 | 69.2 | 63.2 | 67.6 | 63.2 | 69 | 3.74 | 43 | 46.8 | 42.7 | 22 | 20.5 | 14.5 | 15.3 | 13.7 | 12.7 | viability, T/C [10]: 45.3%; viability, T/C [11]: 35.7%; viability, T/C [12]: 3.22%; viability, T/C [15]: 22.4%; viability, T/C [16]: 19%; viability, T/C [17]: 15.8%; viability, T/C [18]: 3.59%; viability, T/C [21]: 12.4%; viability, T/C [22]: 13.4%; viability, T/C [23]: 12.7%; viability, T/C [24]: 3.12%; viability, T/C [27]: 14.1%; viability, T/C [28]: 11.5%; viability, T/C [29]: 10.7%; viability, T/C [30]: 0.81%
CCCS(=O)(=O)Nc1ccc(F)c(C(=O)c2c[nH]c3ncc(-c4ccc(Cl)cc4)cc23)c1F + CC(C)NCC(C(=O)N1CCN(c2ncnc3c2C(C)CC3O)CC1)c1ccc(Cl)cc1 | 9890 | < 31.6 | < 31.6 | < 31.6 | < 31.6 | 81.9 | 87.5 | 95.2 | 94.1 | 83.8 | 49.3 | 45.2 | 43.8 | 46.4 | 25 | 22.6 | 13.6 | 15.6 | 12.8 | 13 | viability, T/C [10]: 52.7%; viability, T/C [11]: 50.3%; viability, T/C [12]: 27%; viability, T/C [15]: 27%; viability, T/C [16]: 28.4%; viability, T/C [17]: 26.3%; viability, T/C [18]: 15.1%; viability, T/C [21]: 16.8%; viability, T/C [22]: 17.2%; viability, T/C [23]: 14.5%; viability, T/C [24]: 10.5%; viability, T/C [27]: 15%; viability, T/C [28]: 14.9%; viability, T/C [29]: 12.6%; viability, T/C [30]: 7.8%
